Data on one compound can be found in PMC8170916, “Sublingual AKBA Exerts Antidepressant Effects in the Aβ-Treated Mouse Model” (Biomolecules, 2021).

Molecules are shown by their SMILES.

One data set concerns GFAP. The data set is described as follows: Western blotting quantification of GFAP in PFC and HIPP. In kind it is in vivo. The following applies: mice 7 days after icv Aβ 4 µM, sublingual AKBA 5 mg/kg 30 min earlier. Here is the method: (§1) All behavioral experiments were conducted at 5 or 30 min after sublingual administrations of AKBA or vehicle in either SHAM or Aβ-treated mice. Based upon behavioral outcomes observed, neurochemical and biochemical quantifications were performed 30 min after AKBA or vehicle administration in either SHAM or Aβ-treated mice.
(§2) Anesthetized animals were sacrificed by cervical dislocation. Brains were immediately removed and kept on ice for dissection of PFC and HIPP, according to the atlas of Paxinos and Franklin. Tissues were frozen and stored at −80 °C until analyses were carried out. Samples (PFC and HIPP) were homogenized (1:10 w/v) at 4 °C using a PBS buffer containing a 1:100 protease and phosphatase inhibitor cocktail (HALT inhibitors, Thermo Fisher Scientific, Cleveland, OH, USA) for biochemical analyses or perchloric acid 0.1 M for neurochemical analyses. Homogenates were centrifuged at 13,000× g at 4 °C for 20 min, and supernatants were used for further determinations.
(§3) The total amount of proteins was measured in homogenates by using Pierce BCA Assay (Thermo Fisher Scientific, Cleveland, OH, USA). Forty µg of the total lysate protein were separated by SDS-PAGE precast gels (Bio-Rad Laboratories Inc., Segrate (MI), Italy), transferred onto nitrocellulose membranes (Bio-Rad Laboratories Inc, Segrate (MI), Italy) and then blocked for 1 h in blocking buffer (SigmaAldrich, Milan, Italy). Rabbit polyclonal antibody against GFAP (Dako Products, USA; 1:2000), rabbit monoclonal antibody against CD11b (Abcam, Cambridge, MA, USA; ab133357, 1:1000) and mouse monoclonal antibody against NF-kB p65 (Santa Cruz Biotechnology, Dallas, Texas, USA; 1:2000) were used to incubate the membranes overnight at 4 °C. After HRP-conjugated specific antibody incubation, ECL reagent (Bio-Rad Laboratories Inc., Segrate (MI), Italy) was added to the immune complex and chemiluminescence was detected by ChemiDoc MP system (Bio-Rad Laboratories Inc., Segrate (MI), Italy). Optical densities of the bands were measured using ImageJ software (http://rsb.info.nih.gov/ij/ accessed on 15 March 2021) and normalized against bands relative to β-actin (1:5000, Abcam, Cambridge, UK).
A general note: A western blot detects proteins with antibodies after separation by electrophoresis.

The subject of the next data set is intact mice. Kind of data set: Preliminary experiments on antidepressant effects in intact mice. In kind it is in vivo. Particulars: unpublished observations. As for the experimental part: AKBA (Cayman Chemical Company) was dissolved in sunflower oil, this vehicle was chosen in order to maintain a better tasting and higher density of the final solution thus reducing reflux through the digestive tract. […] Ten µL of the solution (or vehicle alone) was sublingually administered to mice. For intranasal administration, requiring more hydrophilic solution, AKBA was dissolved in DMSO and saline (1:3, v/v), and given to mice at the same final dose of 5 mg/kg. Cerebral AKBA was quantified in a separate subset of mice at 5, 15 and 30 min after its administration, either sublingually or intranasally.

In another data set the test system is kynurenine (KYN). Kind of data set: Kynurenine quantification in PFC and HIPP by HPLC with electrochemical detection. In kind it is in vivo. The following applies: mice 7 days after icv Aβ 4 µM, sublingual AKBA 5 mg/kg 30 min earlier. As for the experimental part:
as §1, §2
(§4) 5-HT, noradrenaline (NA), and KYN levels were measured in the PFC and HIPP of mice by HPLC coupled with an electrochemical detector (Ultimate ECD, Thermo Scientific Dionex, Milan, Italy) as already reported. Separation was performed by a LC18 reverse phase column (Kinetex, 150 mm × 3.0 mm, ODS 5 μm; Phenomenex, Castel Maggiore-Bologna, Italy). The detection was accomplished by a thin layer amperometric cell (Thermo Scientific Dionex, Milan, Italy) with a 5 mm diameter glassy carbon electrode at a working potential of 400 mV (5-HT and NA) or 0.750 mV (KYN) vs. Pd. The mobile phase consisted of an aqueous buffer containing 75 mM NaH2PO4, 1.7 mM octane sulfonic acid, 0.3 mM EDTA, and acetonitrile 10%, buffered at pH 3.0. The flow rate was kept at 0.7 mL·min-1 by an isocratic pump (Shimadzu LC-10 AD, Kyoto, Japan). Data acquisition and integration were performed by using Chromeleon software (version 6.80, Thermo Scientific Dionex, Milan, Italy). GLU concentrations were determined by HPLC coupled with fluorescence detection (emission length 460 nm; excitation length 340 nm), as previously published. Analyses were carried out using an LC18 reverse phase column (Kinetex, 150 mm × 3.0 mm, ODS 5 μm; Phenomenex, Castel Maggiore, Bologna, Italy) and detection was accomplished by pre-column derivatization with ophthalaldehyde/mercaptopropionic acid. The mobile phase consisted of a 50 mM sodium acetate buffer, at pH 6.95, with gradient methanol increasing linearly from 2 to 30% (v/v) over a 40 min run. […] Results were analyzed by Borwin software (version 1.50; Jasco, Cremella, Italy) and the amino acid concentration was expressed as µM. All data were normalized for total area weight and were expressed as concentration/mg of tissue.

Another data set relates to 5-LOX. Details: method as in PMID 9760176. Particulars: cited from earlier work.
The next data set concerns 5-HT. Kind of data set: 5-HT quantification in PFC and HIPP by HPLC with electrochemical detection. In kind it is in vivo. The following applies: mice 7 days after icv Aβ 4 µM, sublingual AKBA 5 mg/kg 30 min earlier. Here is the method:
as §1, §2, §4

Another data set concerns glutamate (GLU). Kind of data set: Glutamate quantification in PFC and HIPP by HPLC with fluorescence detection. In kind it is in vivo. The following applies: PFC, mice 7 days after icv Aβ 4 µM; sublingual AKBA 5 mg/kg 30 min earlier. Here is the method:
as §1, §2
(§5) 5-HT, noradrenaline (NA), and KYN levels were measured in the PFC and HIPP of mice by HPLC coupled with an electrochemical detector (Ultimate ECD, Thermo Scientific Dionex, Milan, Italy) as already reported. Separation was performed by a LC18 reverse phase column (Kinetex, 150 mm × 3.0 mm, ODS 5 μm; Phenomenex, Castel Maggiore-Bologna, Italy). The detection was accomplished by a thin layer amperometric cell (Thermo Scientific Dionex, Milan, Italy) with a 5 mm diameter glassy carbon electrode at a working potential of 400 mV (5-HT and NA) or 0.750 mV (KYN) vs. Pd. The mobile phase consisted of an aqueous buffer containing 75 mM NaH2PO4, 1.7 mM octane sulfonic acid, 0.3 mM EDTA, and acetonitrile 10%, buffered at pH 3.0. […] GLU concentrations were determined by HPLC coupled with fluorescence detection (emission length 460 nm; excitation length 340 nm), as previously published. […] Results were analyzed by Borwin software (version 1.50; Jasco, Cremella, Italy) and the amino acid concentration was expressed as µM. All data were normalized for total area weight and were expressed as concentration/mg of tissue.

The next data set concerns mice. The data set is described as follows: Open field test (locomotion). In kind it is in vivo. The following applies: 30 min after AKBA or vehicle administration. As for the experimental part: Mice were placed in an open field arena and allowed to explore for 30 min [25]. After each trial, the arena floor was cleaned with 70% ethanol to avoid inter-assay bias. The movements of mice were video recorded and analyzed by ANY-maze tracking software (Ugo Basile-Varese, Gemonio, Italy). Locomotion was evaluated through total crossing measurements.

For the next data set, the system named is APPswe/PS1dE9. Further details: method as in PMID 32109514. The following applies: AD genetic model; cited from earlier work.
Details of data set [1]: method as in PMID 21553931. Particulars: cited from earlier work.
Another data set concerns CD11b. The data set is described as follows: Western blotting quantification of CD11b in PFC and HIPP. In kind it is in vivo. Particulars: mice 7 days after icv Aβ 4 µM, sublingual AKBA 5 mg/kg 30 min earlier. As for the experimental part:
as §1, §2, §3

The next data set has as its system Aβ-treated mice. Kind of data set: Tail suspension test in Aβ-treated mice. In kind it is in vivo. Particulars: mice 7 days after icv Aβ 4 µM, sublingual AKBA 5 mg/kg 30 min before, Aβ vs SHAM.
A further data set concerns noradrenaline (NA). The data set is described as follows: Noradrenaline quantification in PFC and HIPP by HPLC with electrochemical detection. In kind it is in vivo. The following applies: mice 7 days after icv Aβ 4 µM, sublingual AKBA 5 mg/kg 30 min earlier. As for the experimental part:
as §1, §2, §5

For `CC(=O)O[C@@H]1CC[C@@]2(C)[C@@H](CC[C@]3(C)[C@@H]2C(=O)C=C2[C@@H]4[C@@H](C)[C@H](C)CC[C@]4(C)CC[C@]23C)[C@@]1(C)C(=O)O` [AKBA, 3-O-acetyl-11-keto-β-boswellic acid], the “GFAP levels in the HIPP (optical density normalized to actin)” value with GFAP (HIPP) is on record as “restored those levels back to control”. Further, in the data set on GFAP (PFC), the “GFAP levels in the PFC (optical density normalized to actin)” value is reported as “prevented such an increase”. In addition, the “Lowest dose showing antidepressant effects on intact mice” value in the data set on intact mice turned out to be 5 mg/kg. The “KYN levels in the HIPP” value in the data set with kynurenine (KYN) (HIPP) is listed as “prevented the increase in KYN levels”. Also, the “KYN levels in the PFC” value in the data set on kynurenine (KYN) (PFC) is reported as “prevented such an increase”. Also, the 5-LOX inhibition in the data set with 5-LOX was 5-LOX inhibitor. The “5-HT levels in the HIPP” value with 5-HT (HIPP) is “no differences among experimental groups”. The “5-HT levels in the PFC” value with 5-HT (PFC) was “no effect”. Moreover, in the data set with glutamate (GLU), the “GLU levels in the PFC” value is “restored those levels to control”. The “Locomotion in the open field test” value in the data set on mice is on record as “no difference”. Also, in the data set with APPswe/PS1dE9, the “Cerebral amyloid beta (Aβ) production and plaque burden in APPswe/PS1dE9” value was “decrease cerebral amyloid beta (Aβ) production and plaque burden”; the “Cognitive impairments in APPswe/PS1dE9” value is “able to reverse cognitive impairments”. Besides, in [1], the Oral bioavailability result is “low oral bioavailability”. Also, the “CD11b levels in the HIPP (optical density normalized to actin)” value in the data set on CD11b (HIPP) is listed as “not able to modify such an outcome”. In the data set on CD11b (PFC), the “CD11b content in the PFC (optical density normalized to actin)” value is listed as “no differences were found among experimental groups”. For the same compound, the “Immobility time in the tail suspension test” value with Aβ-treated mice is recorded as “prevented such an effect”. Besides, the “NA levels in the HIPP” value in the data set with noradrenaline (NA) (HIPP) is “further increase compared to SHAM mice”. Also, the “NA levels in the PFC” value in the data set on noradrenaline (NA) (PFC) is “significantly increased NA levels”.
